Where two headings read alike, the source gives them in different places.
Legend:
[1] = tested on: quail chymotrypsin; test: ATEE assay: inhibition of quail intestinal chymotrypsin activity; assay type: biochemical, Japanese quail; conditions: compound 1 x 10⁻⁵M; ATEE substrate; percentage inhibition of control activity ± standard deviation (n = 3); 5 min, 10 µM
Method: The substrate was prepared by dissolving ATEE (10 mg) in Tris-HCl buffer of pH 7.5 containing 30% (v/v) of methanol (25 ml). The quail intestine protease activity was partially purified as described above prior to testing for chymotrypsin activity. The reaction was carried out in a quartz cuvette (1 x 0.25 x 1 cm³) containing substrate (1 ml) and 100 mM Tris-HCl buffer (200 µl). The reaction was started by the addition of the partially purified intestine protease (200 µl) and followed bv the decrease in absorbance at 237 nm over a 5 minute period. All determinations were carried out in triplicate against a reagent blank.

[2] = tested on: bullfinch trypsin; test: BAEE assay: inhibition of bullfinch intestinal trypsin activity; assay type: biochemical; conditions: compound 1 x 10⁻⁵M; BAEE substrate; percentage inhibition of control activity ± standard deviation (n = 3); 7 min, 10 µM
Method: (§1) Dried avian intestine powder (500 mg) was extracted for 30 minutes in 1 mM HC₁ (5 ml). The extract was centrifuged at 22,000 x g for 30 minutes at 4°C. The resultant supernatant was applied to a column of Sephadex G-50, medium grade (360 mm x 15 mm) and eluted with 0.5 mM HCl at 0.7 ml/min. Fractions (3.5 ml) were collected and tested for the presence of protein by determining their absorbance at 280 nm. The proteinaceous fractions were bulked and concentrated by passing them through an ultrafiltration unit (YM 30 filter). The concentrate was collected and kept at 4°C throughout its use.
The substrate was prepared bv dissolving BAEE (10 mg) in a mixture of 50 mM Tris-HCl buffer of pH 7.5 (24 ml) and 5% (w/v) calcium chloride solution (1 ml). The bullfinch intestine protease activity was partially purified as described above prior to testing for trypsin activity. The reaction was carried out in a quartz cuvette (1 x 0.25 x 1 cm³) containing substrate (1 ml) and 50 mM Tris-HCl buffer (200 µl). The reaction was started by the addition of the partially purified intestine protease 1200 µl) and followed by the decrease in absorbance at 253 nm over a 7 minute period. All determinations were carried out in triplicate against a reagent blank.
(§2) In both the chymotrypsin and the trypsin assays a control was however carried out using the 200 µl of buffer containing no added compound.

[3] = tested on: pigeon trypsin; test: TAME assay: inhibition of pigeon intestinal trypsin activity; assay type: biochemical; conditions: compound 60 µg/ml; TAME substrate; percentage inhibition of control activity ± standard deviation (n = 3); 5 min
Method: as §1
The substrate was prepared by dissolving TAME (19 mg) in a mixture of 100 mM Tris-HCl buffer of pH 7.5 (50 ml) and 5% (w/v) calcium chloride solution (2 ml). The pigeon intestine protease was partially purified as described above prior to testing for trypsin activity. The reaction was carried out in a quartz cuvette (1 x 0.25 x 1 cm³) containing substrate (3 ml) and 100 mM Tris-HCl buffer pH 7.5 (100 µl). The reaction was started by the addition of the partially purified intestine protease (100 µl) and followed by the decrease in absorbance at 247 nm over a 5 minute period.
as §2

[4] = tested on: feral pigeons; test: Three day no-choice feeding test with feral pigeons; assay type: in vivo; conditions: 0.5% w/w compound/pellet, ± standard deviation; for Mean weight difference: after the test compared with before; for Mean consumption: treated food
Method: (§3) Feral pigeons were transferred from a communal outdoor aviary to individual cages and maintained on a 10 hour light - 14 hour dark cycle. Birds were gradually weaned away from their normal diet of maize, wheat and maple peas to a standard laboratory diet of turkey starter pellets.
(§4) The pellets were oven dried and then left to absorb atmospheric moisture. The control food was sprayed with the same volume of acetone/water mixture.
(§5) A group of 35 feral pigeons was caged individually for the trials which used eight compounds of formula (I) together with sucrose octaacetate and dimethyl anthranilate, both of which are substances which are known to be avian repellents. Each bird was subjected to treatment with each compound in a random order subject to the limitation of a latin square design. Each treatment was presented to the birds in no-choice and two-choice conditions. The no-choice phase lasted 3 days, during which a bird was presented with a single bowl containing 120 g of treated food. Each bird was weighed before and after the no-choice phase, as was the amount of food remaining. There immediately followed a two-choice phase in which the birds could choose between food treated with a given chemical and a bowl containing otherwise identical pellets without the chemical (the control treatment utilising two bowls of acetone/water treated pellets, one of which was arbitrarily selected as the control). The two-choice phase lasted four days during which food consumption was monitored daily. The position of the food bowls was alternated each day in order to overcome the confusing of food preference with position preference and ample water and grit were supplied throughout the trial.

[5] = tested on: feral pigeons; test: Four day two-choice feeding test with feral pigeons; assay type: in vivo; conditions: four day two-choice; 0.5% w/w compound/pellet
Method: as §3, §4, §5
The data obtained in the four day two-choice test is presented in Table 5 for mean consumption of treated food. […]

[6] = pear buds

Structure (SMILES)	Inhibition of Activity Chymotrypsin [1]	Inhibition of Activity Trypsin [2]	Inhibition of Activity [3]	Mean weight difference [4]	Mean consumption [4]	Mean consumption of treated food [5]	residues as a percentage of the initial level ([6]; 192 h)	residues as a percentage of the initial level ([6]; 1224 h)
O=C(O)C=Cc1ccc(O)c(O)c1 [3,4-Dihydroxycinnamic acid]	85 ± 2 percentage	43 ± 3 percentage	22 ± 1 percentage	2.3 ± 1.1 grams	63.3 ± 3.0 grams	31.1 ± 3.4 grams	8%	
O=C(O)C=Cc1ccccc1 [Cinnamic Acid, cinnamic acid]	32 ± 3 percentage	85 ± 2 percentage	93 ± 3 percentage	2.4 ± 1.1 grams	60.4 ± 3.1 grams	25.2 ± 2.9 grams	41%	3%

Reference: patent EP0321208A1, “Improvements in or relating to avian control” (priority 1987, dated 1989)
